Measured values from PubChem BioAssay AID1794813.
“And” between values parts separate entries of the source, which are not always exact repeats. Equal values may be shown once.

Target: Sodium-dependent phosphate transport protein 2A (Homo sapiens) (UniProt Q06495)
Assay: PubChem AID 1794813
Conditions: HEK293 JumpIn SLC34A1, FLIPR membrane potential dye

Chain of Sodium-dependent phosphate transport protein 2A (Homo sapiens) (Q06495 whole entry, looked up): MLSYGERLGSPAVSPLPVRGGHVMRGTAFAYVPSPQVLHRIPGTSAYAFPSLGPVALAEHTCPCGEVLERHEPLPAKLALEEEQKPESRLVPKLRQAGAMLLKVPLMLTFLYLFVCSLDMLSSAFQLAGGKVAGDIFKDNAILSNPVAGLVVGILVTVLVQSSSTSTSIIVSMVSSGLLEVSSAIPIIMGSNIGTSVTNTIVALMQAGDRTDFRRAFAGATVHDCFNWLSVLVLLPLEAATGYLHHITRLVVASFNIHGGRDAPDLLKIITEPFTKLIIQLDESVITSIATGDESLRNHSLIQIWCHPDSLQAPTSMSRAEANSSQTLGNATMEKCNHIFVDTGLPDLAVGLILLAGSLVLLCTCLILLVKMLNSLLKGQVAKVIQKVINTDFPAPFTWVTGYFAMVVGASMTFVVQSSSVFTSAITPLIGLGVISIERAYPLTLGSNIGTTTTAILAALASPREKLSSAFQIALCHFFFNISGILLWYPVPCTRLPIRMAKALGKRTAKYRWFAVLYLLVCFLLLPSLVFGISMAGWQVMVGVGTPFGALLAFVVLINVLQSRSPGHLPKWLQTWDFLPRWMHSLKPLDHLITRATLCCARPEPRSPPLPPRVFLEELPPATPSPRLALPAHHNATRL

EC50 (substrate-evoked depolarization, activation): 32 µM and 39 µM
Structure (SMILES): O=P(O)(O)O
